Measurements published in patent US7972785B2, “Biomarkers for liver fibrotic injury” (Industrial Technology Research Institute (ITRI), priority 2006, dated 2011).

System: Male Sprague-Dawley rats
Experiment: Serum biochemical analysis in DMN-induced rat hepatic fibrosis model
Type: in vivo
Settings: DMN-treatment, mean ± SD; for PT (prothrombin time): rat blood; for ACP (acid phosphatase) / AFP (a-fetoprotein) / AKP (alkaline phosphatase) / Albumin / BUN (blood urea nitrogen) / Bilirubin (total bilirubin) / CHOL (cholesterol) / GOT (glutamic oxaloacetic transaminase) / GPT (glutamic pyruvic transaminase) / Globulin / LDH (lactate dehydrogenase): rat serum
Procedure: A rat hepatic fibrosis model was set up through the use of DMN. DMN is a potent hepatoxin that specifically targets the liver and can cause liver fibrosis. The histopathological changes resulting from DMN treatment involve the rapid deposition of collagen, the major protein of fibrosis and important to the process of cirrhosis. […] The DMN-induced liver fibrosis model was performed as described in Jezequel A. M. et al. (14). Male Sprague-Dawley rats (Slc:SD; Japan SLC, Shizuoka, Japan), weighing from 300 to 350 grams, were used in the experiments. To induce hepatic fibrosis over a six-week time course experiment, the rats were given DMN (Sigma, Saint Louis, Mo.), dissolved in normal saline, three consecutive days a week for the first three consecutive weeks at the dosage of 6.7 mg/kg per body weight by intraperitoneal injection. Injection time points are shown as inverted triangles in FIG. 1. Injections were at a much lower dosage than those used in other experiments where the dosage was 100 mg/kg/day. The higher dosage can cause toxicity in rat liver (21, 22).)
Two to seven rats at each time point were treated with either DMN or with an equal volume of normal saline without DMN as the control (26 DMN-treated rats and 24 control rats). Rats were weighed and sacrificed on days 11, 18, 25, 32, 39, and 46 (sacrifice time points are shown as triangles in FIG. 1A) respectively. These triangular time points were designated as weeks 1 through 6 (FIG. 1A).
The serum of each rat, 50 rats in total, was subjected to various biochemical examinations related to liver damages. Blood samples, collected from the animals at necropsy, were used to measure serum concentrations or activity of albumin, glutamic oxaloacetic transaminase (GOT), glutamic pyruvic transaminase (GPT), total bilirubin, alkaline phosphatase (AKP), acid phosphatases (ACP), α-fetoprotein (AFP), blood urea nitrogen (BUN), cholesterol (CHOL), lactate dehydrogenase (LDH), globulin, prothrombin time (PT) and blood platelets (PLT) using an Hitachi 747 and ACL 3000 clinical chemistry analyzer system (MYCO, Renton, Wash.). […] The thirteen serum markers identified in these experiments are the same serum markers for human liver fibrosis.

## CN(C)N=O [DMN, Dimethylnitrosamine]
1-2 wk
  PT (prothrombin time): 18 ± 4 (8) sec
  ACP (acid phosphatase): 1.9 ± 0.6 (4) mg/dl
  AFP (a-fetoprotein): 0.40 ± 0.19 (4) ng/dl
  AKP (alkaline phosphatase): 600.8 ± 93.0 (4) KA
  Albumin: 3.9 ± 0.7 (7) g/dl
  BUN (blood urea nitrogen): 33 ± 4 (4) mg/dl
  Bilirubin (total bilirubin): 0.72 ± 0.53 (8) mg/dl
  CHOL (cholesterol): 77 ± 8 (4) mg/dl
  GOT (glutamic oxaloacetic transaminase): 661.5 ± 134.4 (8) U/l
  GPT (glutamic pyruvic transaminase): 459.5 ± 78.5 (8) U/l
  Globulin: 6.7 ± 0.1 (2) g/dl
  LDH (lactate dehydrogenase): 414.8 ± 102.7 (4) IU/l
3-4 wk
  PT (prothrombin time): 20 ± 4 (9) sec
  ACP (acid phosphatase): 6.2 ± 1.1 (4) mg/dl
  AFP (a-fetoprotein): 0.38 ± 0.05 (4) ng/dl
  AKP (alkaline phosphatase): 668.3 ± 222.0 (3) KA
  Albumin: 3.5 ± 0.6 (11) g/dl
  BUN (blood urea nitrogen): 36 ± 2 (4) mg/dl
  Bilirubin (total bilirubin): 1.01 ± 0.74 (11) mg/dl
  CHOL (cholesterol): 70 ± 13 (6) mg/dl
  GOT (glutamic oxaloacetic transaminase): 1006.1 ± 749.6 (11) U/l
  GPT (glutamic pyruvic transaminase): 566.6 ± 313.5 (11) U/l
  Globulin: 5.0 ± 0.8 (4) g/dl
  LDH (lactate dehydrogenase): 562.0 ± 120.8 (3) IU/l
5-6 wk
  PT (prothrombin time): 22 ± 5 (6) sec
  ACP (acid phosphatase): 8.2 ± 0.6 (2) mg/dl
  AFP (a-fetoprotein): 0.35 ± 0.07 (2) ng/dl
  AKP (alkaline phosphatase): 468 ± 12.7 (2) KA
  Albumin: 3.2 ± 0.1 (7) g/dl
  BUN (blood urea nitrogen): 31 ± 5 (2) mg/dl
  Bilirubin (total bilirubin): 1.13 ± 1.00 (7) mg/dl
  CHOL (cholesterol): 67 ± 18 (5) mg/dl
  GOT (glutamic oxaloacetic transaminase): 1572.9 ± 965.3 (7) U/l
  GPT (glutamic pyruvic transaminase): 763.6 ± 405.2 (7) U/l
  Globulin: 3.6 ± 0.3 (2) g/dl
  LDH (lactate dehydrogenase): 853.5 ± 91.2 (2) IU/l
